“And” between values parts separate entries of the source, which are not always exact repeats. Equal entries are not always repeated.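 48-hour exposure; five concentrations; linearly interpolated endpoints. The concentration for 50% growth inhibition is given as GI50. TGI: concentration producing complete growth inhibition.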
Key:
Test in all cases: growth of human tumour cells (NCI), 48 h
[1] = test system: SNB-19 CNS
[2] = test system: SK-MEL-28 melanoma
[3] = test system: ACHN renal
[4] = test system: LOX IMVI melanoma
[5] = test system: RXF 393 renal
[6] = test system: OVCAR-3 ovarian
[7] = test system: HCT-116 colon
[8] = test system: UO-31 renal
[9] = test system: SK-OV-3 ovarian
[10] = test system: HL-60(TB) leukemia
[11] = test system: U251 CNS
[12] = test system: NCI-H522 lung
[13] = test system: HCT-15 colon
[14] = test system: OVCAR-4 ovarian
[15] = test system: OVCAR-5 ovarian
[16] = test system: OVCAR-8 ovarian
[17] = test system: HOP-62 NSCLC
[18] = test system: TK-10 renal
[19] = test system: MOLT-4 leukemia
[20] = test system: KM12 colon
[21] = test system: SR leukemia
[22] = test system: DU-145 prostate
[23] = test system: HOP-92 NSCLC
[24] = test system: NCI-H226 lung
[25] = test system: 786-0 renal
[26] = test system: NCI-H460 lung
[27] = test system: RPMI-8226 leukemia
[28] = test system: SK-MEL-5 melanoma
[29] = test system: PC-3 prostate
[30] = test system: SN12C renal
[31] = test system: M14 melanoma
[32] = test system: SW-620 colon
[33] = test system: HS 578T breast
[34] = test system: HCC-2998 colon
[35] = test system: SF-268 CNS
[36] = test system: SF-539 CNS
[37] = test system: MALME-3M melanoma
[38] = test system: T-47D breast
[39] = test system: BT-549 breast
[40] = test system: NCI-H23 lung
[41] = test system: MCF7 breast
[42] = test system: CCRF-CEM leukemia
[43] = test system: MDA-N
[44] = test system: IGROV1 ovarian
[45] = test system: HT29 colon
[46] = test system: MDA-MB-231 breast
[47] = test system: COLO 205 colon
[48] = test system: UACC-62 melanoma
[49] = test system: SK-MEL-2 melanoma
[50] = test system: SF-295 CNS
[51] = test system: CAKI-1 renal
[52] = test system: MDA-MB-435
[53] = test system: SNB-75 CNS
[54] = test system: NCI/ADR-RES ovarian
[55] = test system: A498 renal
[56] = test system: K-562 leukemia
[57] = test system: A549 NSCLC
[58] = test system: UACC-257 melanoma
[59] = test system: EKVX NSCLC

## COC(=O)CN1Cc2cc(C)cc(c2O)CN(CC(=O)OC)Cc2cc(C)cc(c2O)CN(CC(=O)OC)Cc2cc(C)cc(c2O)CN(CC(=O)OC)Cc2cc(C)cc(c2O)C1
[1]
  GI50: 18.3 µM
  TGI: 50 µM and > 100 µM
[2]
  GI50: 27.9 µM
  TGI: 50 µM and > 100 µM
[3]
  GI50: 34.6 µM
  TGI: 50 µM and > 100 µM
[4]
  GI50: 8.68 µM
  TGI: 50 µM and > 100 µM
[5]
  GI50: 36.1 µM
  TGI: 28.6 µM and > 100 µM
[6]
  GI50: 5.7 µM
  TGI: 32.1 µM and > 100 µM
[7]
  GI50: 27.7 µM
  TGI: 50 µM and > 100 µM
[8]
  GI50: 33.8 µM
  TGI: 50 µM and > 100 µM
[9]
  GI50: 35.3 µM
  TGI: 46.2 µM and > 100 µM
[10]
  TGI: 16 µM
[11]
  GI50: 30.9 µM
  TGI: 50 µM and > 100 µM
[12]
  TGI: > 100 µM
[13]
  GI50: 25 µM
  TGI: 50 µM and > 100 µM
[14]
  GI50: 33.1 µM
  TGI: 50 µM and > 100 µM
[15]
  GI50: 5.26 µM
  TGI: 50 µM and > 100 µM
[16]
  GI50: 18.7 µM
  TGI: 50 µM and > 100 µM
[17]
  GI50: 23.3 µM
  TGI: 47.8 µM and > 100 µM
[18]
  GI50: > 100 µM
  TGI: 50 µM and > 100 µM
[19]
  GI50: 39.8 µM
  TGI: 50 µM and > 100 µM
[20]
  GI50: 50.2 µM
  TGI: 50 µM and > 100 µM
[21]
  GI50: 18 µM
  TGI: 50 µM and > 100 µM
[22]
  GI50: 33.3 µM
  TGI: 50 µM and > 100 µM
[23]
  GI50: 21.5 µM
  TGI: > 50 µM and 97.5 µM
[24]
  GI50: 11.1 µM
  TGI: 47.2 µM and > 100 µM
[25]
  TGI: 50 µM and > 100 µM
[26]
  GI50: 21.7 µM
  TGI: 50 µM and > 100 µM
[27]
  GI50: 87.6 µM
  TGI: 50 µM and > 100 µM
[28]
  GI50: 37.7 µM
  TGI: 50 µM and > 100 µM
[29]
  TGI: 50 µM and > 100 µM
[30]
  GI50: 51.6 µM
  TGI: 50 µM and > 100 µM
[31]
  GI50: 17.7 µM
  TGI: 18.7 µM and 51.5 µM
[32]
  GI50: 18 µM
  TGI: 50 µM and > 100 µM
[33]
  GI50: > 100 µM
  TGI: 50 µM and > 100 µM
[34]
  GI50: 25.2 µM
  TGI: 50 µM and > 100 µM
[35]
  GI50: > 100 µM
  TGI: 50 µM and > 100 µM
[36]
  GI50: 37.3 µM
  TGI: 50 µM and > 100 µM
[37]
  TGI: 50 µM
[38]
  GI50: 36.4 µM
  TGI: 50 µM and > 100 µM
[39]
  GI50: 15.3 µM
  TGI: 50 µM and 77.7 µM
[40]
  TGI: 50 µM and > 100 µM
[41]
  GI50: 39.9 µM
  TGI: 50 µM and > 100 µM
[42]
  GI50: 5.37 µM
  TGI: 50 µM and 33.2 µM
[43]
  GI50: 84.1 µM
  TGI: > 100 µM
[44]
  TGI: 50 µM
[45]
  TGI: 50 µM
[46]
  GI50: 34.7 µM
  TGI: 50 µM and > 100 µM
[47]
  GI50: 28.6 µM
  TGI: 50 µM and > 100 µM
[48]
  TGI: > 100 µM
[49]
  GI50: 2.36 µM
  TGI: 50 µM and 31.3 µM
[50]
  GI50: 34.1 µM
  TGI: 50 µM and > 100 µM
[51]
  TGI: 50 µM
[52]
  GI50: 45.9 µM
  TGI: 50 µM and > 100 µM
[53]
  GI50: 42.5 µM
  TGI: 50 µM and > 100 µM
[54]
  GI50: 21.9 µM
  TGI: 50 µM and 64 µM
[55]
  GI50: > 100 µM
  TGI: 50 µM and > 100 µM
[56]
  GI50: 61.2 µM
  TGI: 50 µM and > 100 µM
[57]
  GI50: 46.4 µM
  TGI: 50 µM and > 100 µM
[58]
  GI50: 50.4 µM
  TGI: 50 µM and > 100 µM
[59]
  GI50: 35.3 µM
  TGI: 50 µM and > 100 µM

From PubChem BioAssay (NCI)
